Measurements: patent US5306639A, “DNA encoding glucanase enzymes” (priority 1985, dated 1994)
Where two headings read alike, the source gives them in different places.

What was measured:
dextranase = target: T1, dextranase (Arthrobacter sp., UniProt P39652); test: Effects of metallic ions and enzyme inhibitors on dextranase activity; assay type: biochemical, Arthrobacter sp. CB-8; settings: for inhibition of dextranase (in words): summary of Table 6; for activity at 1000 µM: read-out: Relative activity (%) of dextranase
T1 construct: the mature dextranase protein consisting of 591 amino acid residues; endogenous in cells; host or cells: Arthrobacter sp; CB-8 (FERM BP-995), enzyme purified from the culture
T1 sequence (P39652 50-640): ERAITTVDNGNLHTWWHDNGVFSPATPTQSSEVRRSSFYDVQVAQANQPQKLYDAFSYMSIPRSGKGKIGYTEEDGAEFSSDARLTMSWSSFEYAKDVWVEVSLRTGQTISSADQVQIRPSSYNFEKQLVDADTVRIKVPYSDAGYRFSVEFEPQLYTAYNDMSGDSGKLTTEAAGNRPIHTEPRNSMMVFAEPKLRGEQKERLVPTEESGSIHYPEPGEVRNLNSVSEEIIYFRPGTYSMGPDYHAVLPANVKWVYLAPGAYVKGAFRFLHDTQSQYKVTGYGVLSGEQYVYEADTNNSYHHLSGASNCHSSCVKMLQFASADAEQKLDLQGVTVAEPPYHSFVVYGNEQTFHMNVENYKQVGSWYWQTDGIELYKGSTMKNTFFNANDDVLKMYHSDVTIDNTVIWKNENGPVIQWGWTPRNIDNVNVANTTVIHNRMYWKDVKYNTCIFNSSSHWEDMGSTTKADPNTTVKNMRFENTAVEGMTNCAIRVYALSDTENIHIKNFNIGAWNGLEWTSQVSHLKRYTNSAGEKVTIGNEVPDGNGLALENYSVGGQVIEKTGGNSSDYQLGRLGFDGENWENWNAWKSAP
Description: 0.1 ml of the enzyme solution is added to 0.9 ml of 50 mM phosphate buffer, pH 6.5, containing 0.555% dextran (molecular weight: 10,000~20,000),and the mixture is incubated at 37° C. for 30 minutes. After the reaction is stopped, the amount of reducing sugar produced is measured by Somogyi-Nelson method. The enzymatic activity which increases a reducing power equivalent to 1 μ mole of glucose per 1 minute was defined as one unit.

α-1,3 glucanase I = test: Effects of metallic ions and enzyme inhibitors on α-1,3 glucanase I; assay type: biochemical, Bacillus circulans BC-8
Description: (§1) Both α-1,3 glucanase I and II are inhibited by Fe^2+, Pb^2+, and […].
(§2) 0.1 ml of α-1,3 glucanase solution was added to 0.2 ml of 1.3-α-D glucan suspension (6 mg/ml, 50 mM phosphate buffer, pH 7.0), and the mixture was incubated for 16 hours at 40° C. The reaction was terminated by adding ethanol (final concentration was 60%), and amount of the sugar which had become soluble in this condition was determined by the phenol sulfuric acid method.
(§3) Under the above-mentioned reaction conditions, the enzyme activity which produced an amount of sugar soluble in 60% ethanol and corresponding to 100 nmol of glucose was defined as one unit. In practice, α-1,3 glucanase solutions of various concentrations were used for developing the standard curve, and the enzyme activity was read out on it.

α-1,3 glucanase II = test: Effects of metallic ions and enzyme inhibitors on α-1,3 glucanase II; assay type: biochemical, Bacillus circulans BC-8
Description: as §1, §2, §3

[1] = metallic ion or inhibitor 0.1 mM, none = 100
[2] = metallic ion or inhibitor 1 mM, none = 100

Row | SMILES | Relative activity (%) of dextranase (dextranase; [2]) [%] | inhibition of α-1,3 glucanase I enzymatic activity (α-1,3 glucanase I) | inhibition of α-1,3 glucanase II enzymatic activity (α-1,3 glucanase II) | also measured
1 | [Cl-].[K+] [KCl] |  |  |  | Relative activity (%) of dextranase (dextranase; metallic ion or inhibitor 10 mM, none = 100): 113%
2 | O=S(=O)([O-])[O-].[Cu+2] [CuSO4] |  |  |  | Relative activity (%) of dextranase (dextranase; [1]): 7%; inhibition of dextranase (in words) (dextranase): significantly inhibited
3 | [Cl][Fe]([Cl])[Cl] [FeCl3] | 104 |  |  | 
4 | O=C(O)CN(CCN(CC(=O)O)CC(=O)O)CC(=O)O [EDTA] |  |  |  | activity at 1000 µM (dextranase): 122%
5 | [Cl][Mn][Cl] [MnCl2] | 77 |  |  | 
6 | O=[N+]([O-])[O-].[Ag+] [AgNO3] |  | significant inhibition | significant inhibition | Relative activity (%) of dextranase (dextranase; [1]): 0%; inhibition of dextranase (in words) (dextranase): significantly inhibited
7 | [Cl-].[Na+] [NaCl] |  |  |  | Relative activity (%) of dextranase (dextranase): 100%
8 | O=C(O)c1cc[c]([Hg][Cl])cc1 [pCMB, p-chloromercuribenzoic acid] | 29 | significant inhibition | significant inhibition | inhibition of dextranase (in words) (dextranase): inhibited strongly
9 | [Cl][Fe][Cl] [FeCl2] | 115 | inhibited | inhibited | 
10 | O=S(=O)([O-])[O-].[Mg+2] [MgSO4] | 113 |  |  | 
11 | [Cl][Hg][Cl] [HgCl2] |  | significant inhibition | significant inhibition | Relative activity (%) of dextranase (dextranase; [1]): 0%; inhibition of dextranase (in words) (dextranase): significantly inhibited
12 | [Ca+2].[Cl-].[Cl-] [CaCl2] | 113 |  |  | 
13 | [Cl][Pb][Cl] [PbCl2] | 103 | inhibited | inhibited | 
14 | [Cl-].[Cl-].[Zn+2] [ZnCl2] | 77 |  |  | 
15 | c1cnc2c(c1)ccc1cccnc12 [o-Phenanthroline] |  |  |  | activity at 1000 µM (dextranase; [2]): 100%
